In BindingDB's records for doi:10.1016/j.bmcl.2003.10.070 (Roche Palo Alto, 2004) one finds Ki data, which are given here for 37 compounds.

The target in the assay is Prostacyclin receptor (Rattus norvegicus) (UniProt P43253). Put plainly: Binding affinity towards prostacyclin receptor on rat NG-108-15 neuroblastoma cells, using [3H]iloprost as a radioligand.
Prostacyclin receptor (Rattus norvegicus), sequence (P43253 whole entry, looked up): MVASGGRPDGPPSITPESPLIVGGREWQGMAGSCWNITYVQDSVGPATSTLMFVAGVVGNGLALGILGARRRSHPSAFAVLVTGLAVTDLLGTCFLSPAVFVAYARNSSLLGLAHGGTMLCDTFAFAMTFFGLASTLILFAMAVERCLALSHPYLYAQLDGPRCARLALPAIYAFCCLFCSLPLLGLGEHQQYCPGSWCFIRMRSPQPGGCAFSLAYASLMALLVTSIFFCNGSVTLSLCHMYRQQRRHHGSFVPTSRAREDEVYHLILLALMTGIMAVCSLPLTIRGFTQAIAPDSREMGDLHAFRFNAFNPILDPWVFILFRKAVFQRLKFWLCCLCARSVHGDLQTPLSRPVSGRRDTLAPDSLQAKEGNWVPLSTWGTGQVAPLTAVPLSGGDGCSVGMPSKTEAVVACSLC
For the compound `COc1ccc(Sc2ccc(C3=NCCN3)cc2)cc1`, the Ki was 316 nM.
The value for `COc1ccc(Sc2ccc(C(=N)N)cc2)cc1` was 1260 nM; that for `COc1cccc(Sc2ccc(NC3=NCCN3)cc2)c1` was 398 nM; that for `CS(=O)(=O)Nc1ccc(Sc2ccc(NC3=NCCN3)cc2)cc1` was 79 nM.
The value for `CC/N=C(\N)Nc1ccc(Sc2ccc(Cl)cc2)cc1` was 631 nM; that for `Clc1ccc(Sc2ccc(CNC3=NCCN3)cc2)cc1` was 501 nM; that for `FC(F)(F)c1ccc(Sc2ccc(NC3=NCCN3)cc2)cc1` was 50 nM.
In the case of `CC(C)c1ccc(Sc2ccc(NC3=NCCN3)cc2)cc1`, the inhibition constant Ki stood at 251 nM.
The value for `Cc1ccc(Sc2ccc(NC3=NCCN3)cc2)cc1` was 100 nM; that for `CCOC(=O)c1ccc(Sc2ccc(NC3=NCCN3)cc2)cc1` was 50 nM.
The compound `Clc1cccc(Cl)c1Sc1ccc(NC2=NCCN2)cc1` displayed a Ki of 631 nM.
The value for `COc1ccc(Sc2ccccc2NC2=NCCN2)cc1` was 631 nM; that for `COc1ccc(C(=O)c2ccc(NC3=NCCN3)cc2)cc1` was 316 nM.
Turning to `CC(C)Oc1ccc(Sc2ccc(NC3=NCCN3)cc2)cc1`, the Ki came to 32 nM.
The value for `COc1ccc(Sc2ccc(NC3=NCCCCN3)cc2)cc1` was 1260 nM; that for `c1ccc(Sc2ccc(NC3=NCCN3)cc2)cc1` was 794 nM.
The value for `CC/N=C(\N)Nc1ccc(Sc2ccc(OC)cc2)cc1` was 251 nM; that for `Clc1ccc(Sc2ccc(NC3=NCCN3)cc2)cc1` was 79 nM; that for `CCOc1ccc(Sc2ccc(NC3=NCCN3)cc2)cc1` was 40 nM.
As to `COc1ccc(Sc2ccc(CC3=NCCN3)cc2)cc1`, affinity was put at a Ki of 5010 nM.
In turn, `COc1ccc(Oc2ccc(NC3=NCCN3)cc2)cc1` showed a Ki of 158 nM.
The value for `COc1ccccc1Sc1ccc(NC2=NCCN2)cc1` was 3980 nM; that for `O=[N+]([O-])c1ccc(Sc2ccc(NC3=NCCN3)cc2)cc1` was 316 nM.
The value for `COc1ccc(Sc2ccc(NC3=NC(C)CN3)cc2)cc1` (configuration not stated) was 63 nM; that for `COc1ccc(N(C)c2ccc(NC3=NCCN3)cc2)cc1` was 501 nM; that for `c1ccc2c(c1)sc1ccc(NC3=NCCN3)cc12` was 3160 nM.
In the case of `COc1ccc(-c2ccc(NC3=NCCN3)cc2)cc1`, affinity was put at a Ki of 1000 nM.
The value for `c1cc(SC2CCCCC2)ccc1NC1=NCCN1` was 3160 nM.
The value for `c1cc(Sc2ccc3c(c2)OCCO3)ccc1NC1=NCCN1` was 631 nM.
`COc1ccc(OC)c(Sc2ccc(NC3=NCCN3)cc2)c1`: affinity was put at a Ki of 794 nM.
The value for `COc1ccc(S(=O)(=O)c2ccc(NC3=NCCN3)cc2)cc1` was 158 nM; that for `COc1ccc(Sc2ccc(NC3=NCCCN3)cc2)cc1` was 79 nM.
The value for `CC(C)(C)c1ccc(Sc2ccc(NC3=NCCN3)cc2)cc1` was 398 nM; that for `COc1ccc(Sc2ccc(NC3=NC(C)(C)CN3)cc2)cc1` was 631 nM.
The value for `COc1ccc(Sc2ccc(CN3CCCC3)cc2)cc1` was 10000 nM; that for `COc1ccc(Cc2ccc(NC3=NCCN3)cc2)cc1` was 25 nM.
In turn, `COc1ccc(Sc2cccc(NC3=NCCN3)c2)cc1` gave a Ki of 3980 nM.

The term Ki denotes the dissociation constant of the complex between target and ligand, obtained from inhibition or displacement. Higher therefore signals a looser hold on the target.
